The values that follow come from article PMC7531004, “Discovery of gramicidin A analogues with altered activities by multidimensional screening of a one-bead-one-compound library” (Nature Communications, 2020).

A short description of data set [1]: H+/Na+ transport assay of bead-derived peptides (one-point).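 Further: relative to parent gramicidin A activity set to 1.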 It is filed as biochemical. Further details: key: relative activity; mean of two control wells = 1.00. As to conditions: bead-derived peptide solution, EYPC/EYPG LUVs. Put shortly:
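Values are normalized fluorescence, with Triton X-100 defining 100% and untreated LUVs 0%, and the two control wells averaging 1.00. Vesicles carried 1.0 mM pyranine and included egg yolk phosphatidylglycerol. Peptides were incubated with them 30 min at room temperature.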

Data set [2] relates to P388 mouse leukemia cells. As to conditions: 92 h. Put shortly: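 P388 cells at 1 × 10^4 cells/mL (final) were exposed to library peptides (stocks diluted 250-fold in RPMI1640/10% FBS) for 92 h at 37 °C, 5% CO2. Viable cells were counted by WST-1/1-methoxy PMS (4 h), absorbance 415 nm, and expressed as cell viability (%).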
Data set [3] deals with Streptococcus pyogenes SSI-9. Description: Antibacterial activity assay of bead-derived peptides (three concentrations). It is filed as cell-based. Further details: key: +++: inhibition by the 640-fold diluted peptide solution; ++: inhibition by the 160-fold diluted solution; +: inhibition by the 40-fold diluted solution; -: no inhibition. As to conditions: S. pyogenes, bead-derived peptide solution, three concentrations. An outline of the steps: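 Library peptide stock applied undiluted, 4-fold and 16-fold diluted in DMSO to S. pyogenes SSI-9 (2 × 10^5 CFU) in cation-adjusted Mueller Hinton broth with 5% laked horse blood. After 18 h at 37 °C, growth judged by visible cell precipitation.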

Where a SMILES comes first, the peptide text is derived from it. [ ]: non-standard residue; d: D form. The star is where a group is joined. NHCH2CH2OH = OCCN*; For = O=C*

For the compound `CC(C)C[C@@H](NC(=O)[C@H](C)NC(=O)[C@H](NC(=O)[C@H](C)NC(=O)CNC(=O)[C@@H](NC=O)C(C)C)C(C)C)C(=O)N[C@H](C(=O)N[C@@H](C(=O)N[C@@H](Cc1c[nH]c2ccccc12)C(=O)N[C@@H](C(=O)N[C@@H](Cc1c[nH]c2ccccc12)C(=O)N[C@H](CC(C)C)C(=O)N[C@@H](Cc1c[nH]c2ccccc12)C(=O)N[C@@H](C(=O)N[C@@H](Cc1c[nH]c2ccccc12)C(=O)NCCO)C(C)C)C(C)C)[C@H](C)O)C(C)C` [compound 4710] (For-VGA[dV]A[dL]V[dT]W[dV]W[dL]W[dV]W-NHCH2CH2OH), in data set [1], the “H+/Na+ transport activity normalized against the value of 1 (1.00)” value (“H+/Na+ transport activity normalized” below) came to 1.06. In data set [2], this compound registered a cell viability/% of 100.0%. Moreover, the antibacterial activity entry in data set [3] is “-”.

Consider `CC(C)C[C@@H](NC(=O)[C@H](C)NC(=O)CNC(=O)[C@@H](NC=O)C(C)C)C(=O)N[C@@H](C)C(=O)N[C@@H](C(=O)N[C@H](C(=O)N[C@@H](C(=O)N[C@@H](Cc1c[nH]c2ccccc12)C(=O)N[C@@H](C(=O)N[C@@H](Cc1c[nH]c2ccccc12)C(=O)N[C@@H](C(=O)N[C@@H](Cc1c[nH]c2ccccc12)C(=O)N[C@H](CC(C)C)C(=O)N[C@@H](Cc1c[nH]c2ccccc12)C(=O)NCCO)C(C)C)C(C)C)[C@H](C)O)C(C)C)C(C)C` [compound 4778] (For-VGA[dL]A[dV]V[dT]W[dV]W[dV]W[dL]W-NHCH2CH2OH), for which, in data set [1], the “H+/Na+ transport activity normalized” value was determined as 1.09. In data set [2], this compound had a cell viability/% of 100.0%. Also, the antibacterial activity result in data set [3] was “-”.

Consider `CNC(=O)C[C@@H](NC(=O)[C@H](Cc1c[nH]c2ccccc12)NC(=O)[C@H](NC(=O)[C@H](Cc1c[nH]c2ccccc12)NC(=O)[C@H](NC(=O)[C@H](Cc1c[nH]c2ccccc12)NC(=O)[C@@H](CC(C)C)NC(=O)[C@@H](NC(=O)[C@H](NC(=O)[C@H](C)NC(=O)[C@@H](CC(C)C)NC(=O)[C@H](C)NC(=O)CNC(=O)[C@@H](NC=O)C(C)C)C(C)C)C(C)C)C(C)C)C(C)C)C(=O)N[C@@H](Cc1c[nH]c2ccccc12)C(=O)NCCO` [compound 4808] (For-VGA[dL]A[dV]V[dL]W[dV]W[dV]W[dD](NHMe)W-NHCH2CH2OH), for which the “H+/Na+ transport activity normalized” value in data set [1] is listed as 1.02. In data set [2], the cell viability/% stood at 100.0%. In data set [3], the antibacterial activity entry is given as “-”.

On to `CC(C)C[C@@H](NC(=O)[C@H](Cc1c[nH]c2ccccc12)NC(=O)[C@H](NC(=O)[C@@H](NC(=O)[C@H](NC(=O)[C@H](C)NC(=O)[C@H](NC(=O)[C@H](C)NC(=O)CNC(=O)[C@@H](NC=O)C(C)C)C(C)C)C(C)C)C(C)C)C(C)C)C(=O)N[C@@H](Cc1c[nH]c2ccccc12)C(=O)N[C@@H](C(=O)N[C@@H](Cc1c[nH]c2ccccc12)C(=O)N[C@@H](C(=O)N[C@@H](Cc1c[nH]c2ccccc12)C(=O)NCCO)C(C)C)C(C)C` [compound 4830] (For-VGA[dV]A[dV]V[dV]W[dL]W[dV]W[dV]W-NHCH2CH2OH), for which, in data set [1], the “H+/Na+ transport activity normalized” value is 1.18. This compound came in with a cell viability/% in data set [2] of 89.5%. For the same compound, the antibacterial activity result in data set [3] is recorded as “++”.

For the compound `CC(C)C[C@@H](NC(=O)[C@H](C)NC(=O)CNC(=O)[C@@H](NC=O)C(C)C)C(=O)N[C@@H](C)C(=O)N[C@@H](C(=O)N[C@H](C(=O)N[C@@H](C(=O)N[C@@H](Cc1c[nH]c2ccccc12)C(=O)N[C@@H](C(=O)N[C@@H](Cc1c[nH]c2ccccc12)C(=O)N[C@H](CC(C)C)C(=O)N[C@@H](Cc1c[nH]c2ccccc12)C(=O)N[C@@H](C(=O)N[C@@H](Cc1c[nH]c2ccccc12)C(=O)NCCO)C(C)C)C(C)C)C(C)C)C(C)C)C(C)C` [compound 4884] (For-VGA[dL]A[dV]V[dV]W[dV]W[dL]W[dV]W-NHCH2CH2OH), the “H+/Na+ transport activity normalized” value in data set [1] came out at 1.27. Besides, in data set [2], the cell viability/% came to 49.1%. Besides, in data set [3], the antibacterial activity entry is given as “++”.

For `CC(C)C[C@@H](NC(=O)[C@H](C)NC(=O)CNC(=O)[C@@H](NC=O)C(C)C)C(=O)N[C@@H](C)C(=O)N[C@@H](C(=O)N[C@H](C(=O)N[C@H](CC(C)C)C(=O)N[C@@H](Cc1c[nH]c2ccccc12)C(=O)N[C@@H](C(=O)N[C@@H](Cc1c[nH]c2ccccc12)C(=O)N[C@H](CC(C)C)C(=O)N[C@@H](Cc1c[nH]c2ccccc12)C(=O)N[C@@H](C(=O)N[C@@H](Cc1c[nH]c2ccccc12)C(=O)NCCO)C(C)C)C(C)C)C(C)C)C(C)C` [compound 4895] (For-VGA[dL]A[dV]V[dL]W[dV]W[dL]W[dV]W-NHCH2CH2OH), in data set [1], the “H+/Na+ transport activity normalized” value was 1.16. For the same compound, the cell viability/% in data set [2] was 48.2%. The antibacterial activity result in data set [3] is recorded as “+”.

Regarding `CC(C)C[C@@H](NC(=O)[C@H](C)NC(=O)CNC(=O)[C@@H](NC=O)C(C)C)C(=O)N[C@@H](C)C(=O)N[C@@H](C(=O)N[C@H](C(=O)N[C@H](CC(C)C)C(=O)N[C@@H](Cc1c[nH]c2ccccc12)C(=O)N[C@@H](C(=O)N[C@@H](Cc1c[nH]c2ccccc12)C(=O)N[C@H](CC(C)C)C(=O)N[C@@H](Cc1c[nH]c2ccccc12)C(=O)N[C@@H](C(=O)N[C@@H](Cc1c[nH]c2ccccc12)C(=O)NCCO)[C@H](C)O)C(C)C)C(C)C)C(C)C` [compound 5058] (For-VGA[dL]A[dV]V[dL]W[dV]W[dL]W[dT]W-NHCH2CH2OH), the “H+/Na+ transport activity normalized” value in data set [1] is 1.02. In data set [2], this compound came in with a cell viability/% of 100.0%. Moreover, the antibacterial activity entry in data set [3] is listed as “-”.

On to `CNC(=O)C[C@@H](NC(=O)[C@H](Cc1c[nH]c2ccccc12)NC(=O)[C@H](NC(=O)[C@@H](NC(=O)[C@@H](CC(C)C)NC(=O)[C@H](C)NC(=O)[C@@H](CC(C)C)NC(=O)[C@H](C)NC(=O)CNC(=O)[C@@H](NC=O)C(C)C)C(C)C)C(C)C)C(=O)N[C@@H](Cc1c[nH]c2ccccc12)C(=O)N[C@H](CC(C)C)C(=O)N[C@@H](Cc1c[nH]c2ccccc12)C(=O)N[C@@H](C(=O)N[C@@H](Cc1c[nH]c2ccccc12)C(=O)NCCO)C(C)C` [compound 5091] (For-VGA[dL]A[dL]V[dV]W[dD](NHMe)W[dL]W[dV]W-NHCH2CH2OH), for which the “H+/Na+ transport activity normalized” value in data set [1] is 1.05. The compound further registered a cell viability/% in data set [2] of 100.0%. Besides, the antibacterial activity result in data set [3] is “+”.

As to `CC(C)C[C@@H](NC(=O)[C@H](Cc1c[nH]c2ccccc12)NC(=O)[C@H](NC(=O)[C@H](Cc1c[nH]c2ccccc12)NC(=O)[C@H](NC(=O)[C@H](Cc1c[nH]c2ccccc12)NC(=O)[C@H](NC(=O)[C@@H](NC(=O)[C@H](NC(=O)[C@H](C)NC(=O)[C@H](NC(=O)[C@H](C)NC(=O)CNC(=O)[C@@H](NC=O)C(C)C)C(C)C)[C@H](C)O)C(C)C)C(C)C)C(C)C)C(C)C)C(=O)N[C@@H](Cc1c[nH]c2ccccc12)C(=O)NCCO` [compound 5164] (For-VGA[dV]A[dT]V[dV]W[dV]W[dV]W[dL]W-NHCH2CH2OH), the “H+/Na+ transport activity normalized” value in data set [1] is 1.19. In data set [2], this compound had a cell viability/% of 100.0%. Further, the antibacterial activity result in data set [3] is recorded as “-”.

Take `CC(C)C[C@@H](NC(=O)[C@H](C)NC(=O)CNC(=O)[C@@H](NC=O)C(C)C)C(=O)N[C@@H](C)C(=O)N[C@@H](C(=O)N[C@H](C(=O)N[C@@H](C(=O)N[C@@H](Cc1c[nH]c2ccccc12)C(=O)N[C@@H](C(=O)N[C@@H](Cc1c[nH]c2ccccc12)C(=O)N[C@H](CC(C)C)C(=O)N[C@@H](Cc1c[nH]c2ccccc12)C(=O)N[C@@H](C(=O)N[C@@H](Cc1c[nH]c2ccccc12)C(=O)NCCO)C(C)C)C(C)C)[C@H](C)O)C(C)C)C(C)C` [compound 5167] (For-VGA[dL]A[dV]V[dT]W[dV]W[dL]W[dV]W-NHCH2CH2OH): the “H+/Na+ transport activity normalized” value in data set [1] is 1.33. The same compound gave a cell viability/% in data set [2] of 100.0%. Moreover, in data set [3], the antibacterial activity entry is “-”.

Consider `CC(C)C[C@@H](NC(=O)[C@H](Cc1c[nH]c2ccccc12)NC(=O)[C@H](NC(=O)[C@@H](NC(=O)[C@H](NC(=O)[C@H](C)NC(=O)[C@H](NC(=O)[C@H](C)NC(=O)CNC(=O)[C@@H](NC=O)C(C)C)C(C)C)C(C)C)C(C)C)C(C)C)C(=O)N[C@@H](Cc1c[nH]c2ccccc12)C(=O)N[C@H](CC(C)C)C(=O)N[C@@H](Cc1c[nH]c2ccccc12)C(=O)N[C@@H](C(=O)N[C@@H](Cc1c[nH]c2ccccc12)C(=O)NCCO)[C@H](C)O` [compound 5172] (For-VGA[dV]A[dV]V[dV]W[dL]W[dL]W[dT]W-NHCH2CH2OH), for which the “H+/Na+ transport activity normalized” value in data set [1] amounted to 1.27. The compound also showed a cell viability/% in data set [2] of 100.0%. Also, the antibacterial activity entry in data set [3] is on record as “++”.

Turning to `CC(C)C[C@@H](NC(=O)[C@H](C)NC(=O)CNC(=O)[C@@H](NC=O)C(C)C)C(=O)N[C@@H](C)C(=O)N[C@H](CC(C)C)C(=O)N[C@H](C(=O)N[C@H](CC(C)C)C(=O)N[C@@H](Cc1c[nH]c2ccccc12)C(=O)N[C@@H](C(=O)N[C@@H](Cc1c[nH]c2ccccc12)C(=O)N[C@@H](C(=O)N[C@@H](Cc1c[nH]c2ccccc12)C(=O)N[C@@H](C(=O)N[C@@H](Cc1c[nH]c2ccccc12)C(=O)NCCO)C(C)C)[C@H](C)O)C(C)C)C(C)C` [compound 5178] (For-VGA[dL]A[dL]V[dL]W[dV]W[dT]W[dV]W-NHCH2CH2OH), in data set [1], the “H+/Na+ transport activity normalized” value is on record as 1.22. For the same compound, the cell viability/% in data set [2] was determined as 100.0%. For the same compound, in data set [3], the antibacterial activity entry is listed as “-”.
